Some test systems named below: MDA-MB-231 breast; MDA-MB-435; PC-3 prostate; HL-60(TB) leukemia; T-47D breast; HT29 colon; M19-MEL melanoma; KM20L2 colon; DMS 273 small cell lung; LXFL 529 NSCLC; XF 498 CNS; DMS 114 small cell lung; SN12K1 renal; DLD-1 colon; P388 leukemia; RXF-631 renal.
Common to all, as to experiment: NCI tumour cell line growth inhibition, 48 h

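Five compound concentrations were applied to cells in 96-well plates for 48 hours; endpoints were derived by simple linear interpolation of the resulting dose-response curve. GI50: concentration for 50% inhibition of growth. TGI: total growth inhibition.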

For the compound `N=c1c2c(=S)n(-c3ccccc3)c(=S)n(-c3ccccc3)c2nc(SCCCN2CCN(c3cccc(Cl)c3)CC2)n1-c1ccccc1`, the TGI in the test on MDA-MB-231 breast was 70.9 µM; in the test with MDA-MB-435 it was more than 100 µM; with PC-3 prostate, more than 100 µM; in the test with HL-60(TB) leukemia it was more than 100 µM.

Turning to `Cc1cc(C)c2c(c1)CC1(Cc3c(C)ccc(C)c3C1=O)C2=O` (configuration not stated), the TGI in the test on MDA-MB-231 breast, in the test with T-47D breast, in the test with MDA-MB-435, in the test with PC-3 prostate and in the test on HL-60(TB) leukemia was more than 100 µM each time.

For the compound `CCNc1nnc(-c2nsc3ccccc23)s1`, the TGI in the test on HT29 colon was 93.3 µM; with M19-MEL melanoma, more than 100 µM; in the test with KM20L2 colon, more than 100 µM; in the test on DMS 273 small cell lung, more than 100 µM; in the test with LXFL 529 NSCLC, more than 100 µM; with HL-60(TB) leukemia, more than 100 µM.

With `Cc1ccc([N+](=O)[O-])cc1S(=O)(=O)Nc1ccc(C2=NNC(c3ccccc3O)C2)cc1` (configuration not stated), the TGI is more than 100 µM in the test with HT29 colon; more than 100 µM in the test on MDA-MB-231 breast; 72.4 µM in the test with T-47D breast; 50.6 µM in the test on MDA-MB-435; more than 100 µM in the test on PC-3 prostate; 61.8 µM in the test on HL-60(TB) leukemia.

On to `CC(=O)Oc1ccc2c(c1)oc1c3ccc(OC(C)=O)cc3n(C)c(=O)c21`, for which the TGI in the test with HT29 colon, in the test with MDA-MB-231 breast, in the test on T-47D breast, in the test on MDA-MB-435 and in the test with PC-3 prostate was more than 100 µM each time.

With `C=C1C(=O)C[C@@]23CCC[C@@]12CC(OCOC)C3` (some centres not stated), the TGI worked out at 4.41 µM in the test with HT29 colon; 12.5 µM in the test with M19-MEL melanoma; 9.02 µM in the test with KM20L2 colon; 8.33 µM in the test with XF 498 CNS; 5.13 µM in the test with DMS 114 small cell lung; 4.13 µM with SN12K1 renal. Moreover, the TGI in the test with DMS 273 small cell lung was determined as 6.65 µM; in the test with HL-60(TB) leukemia, 4.76 µM; in the test on DLD-1 colon, 4.81 µM; in the test with P388 leukemia, 1.92 µM.

In the case of `O=C1C=CC2=[N+]([O-])C(c3ccccc3)(c3ccccc3)C(=Nc3ccccc3)C2=C1`, the TGI came to 5.63 µM with HT29 colon; 3.36 µM with M19-MEL melanoma; 5.22 µM in the test on KM20L2 colon; 2.71 µM in the test on XF 498 CNS; 3.32 µM with DMS 114 small cell lung; 3.36 µM in the test on LXFL 529 NSCLC. The figures for the TGI in the test with RXF-631 renal and in the test with DLD-1 colon were 11.1 µM and 3.14 µM, respectively.

As for `N=C(N)c1ccc(-c2ccc(-c3ccccc3)s2)cc1`, the GI50 is 1.43 µM in the test on MDA-MB-231 breast, 1.83 µM with T-47D breast, 1.66 µM with MDA-MB-435 and 1.76 µM in the test on PC-3 prostate. In addition, the TGI with MDA-MB-231 breast stood at 2.87 µM; with T-47D breast, 4.79 µM; in the test on MDA-MB-435 it was 3.03 µM; with PC-3 prostate it was 3.47 µM.

These data come from PubChem BioAssay (NCI).
